Columns and labels:
Test in all cases: Kinase profiling
Assay type in all cases: biochemical
[1] = target: T1, TAK1 (Homo sapiens, UniProt O43318)
T1 sequence (O43318 1-303 limits assumed): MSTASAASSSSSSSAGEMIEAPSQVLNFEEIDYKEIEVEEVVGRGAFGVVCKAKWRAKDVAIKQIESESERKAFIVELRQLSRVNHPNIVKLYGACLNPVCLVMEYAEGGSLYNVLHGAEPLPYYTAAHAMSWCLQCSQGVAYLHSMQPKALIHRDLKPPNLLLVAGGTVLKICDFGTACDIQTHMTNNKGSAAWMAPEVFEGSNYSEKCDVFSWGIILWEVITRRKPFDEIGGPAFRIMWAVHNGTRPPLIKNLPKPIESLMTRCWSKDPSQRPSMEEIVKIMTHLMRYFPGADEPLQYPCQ

[2] = target: HER4 (Homo sapiens, UniProt Q15303)
[3] = target: T2, IRAK4 (Homo sapiens, UniProt Q9NWZ3)
T2 sequence (Q9NWZ3 1-460): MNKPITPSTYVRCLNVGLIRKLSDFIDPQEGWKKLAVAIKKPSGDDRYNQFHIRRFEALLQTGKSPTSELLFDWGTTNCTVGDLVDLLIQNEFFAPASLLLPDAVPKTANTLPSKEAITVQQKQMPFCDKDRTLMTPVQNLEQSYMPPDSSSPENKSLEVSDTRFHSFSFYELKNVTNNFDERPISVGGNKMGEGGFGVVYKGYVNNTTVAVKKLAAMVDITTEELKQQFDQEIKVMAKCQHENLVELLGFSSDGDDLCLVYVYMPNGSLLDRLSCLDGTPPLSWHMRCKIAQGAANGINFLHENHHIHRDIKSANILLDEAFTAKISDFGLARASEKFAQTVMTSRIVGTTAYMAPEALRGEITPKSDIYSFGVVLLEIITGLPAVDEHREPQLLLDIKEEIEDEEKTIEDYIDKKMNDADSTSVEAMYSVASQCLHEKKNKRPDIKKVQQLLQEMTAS

[4] = target: T3, NUAK1 (Homo sapiens, UniProt O60285)
T3 sequence (O60285 1-661): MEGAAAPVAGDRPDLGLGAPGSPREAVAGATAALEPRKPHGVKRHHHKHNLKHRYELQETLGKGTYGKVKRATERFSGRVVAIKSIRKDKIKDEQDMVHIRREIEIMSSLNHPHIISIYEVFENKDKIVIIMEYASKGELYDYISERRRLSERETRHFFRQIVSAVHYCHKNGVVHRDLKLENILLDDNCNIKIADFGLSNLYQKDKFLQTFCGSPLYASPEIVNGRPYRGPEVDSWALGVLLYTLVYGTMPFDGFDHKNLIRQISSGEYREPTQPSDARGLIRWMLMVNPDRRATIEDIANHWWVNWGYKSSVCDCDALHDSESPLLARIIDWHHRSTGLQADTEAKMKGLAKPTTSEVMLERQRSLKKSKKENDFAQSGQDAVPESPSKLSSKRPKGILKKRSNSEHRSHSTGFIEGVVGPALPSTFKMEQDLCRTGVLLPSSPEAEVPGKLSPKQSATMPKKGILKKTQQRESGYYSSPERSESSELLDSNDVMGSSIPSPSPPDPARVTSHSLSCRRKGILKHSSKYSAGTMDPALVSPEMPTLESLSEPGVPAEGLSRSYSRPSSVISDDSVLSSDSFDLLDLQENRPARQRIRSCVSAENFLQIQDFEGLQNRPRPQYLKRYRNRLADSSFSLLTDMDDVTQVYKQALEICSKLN

[5] = target: CDK9-Cyclin T1 (Homo sapiens, UniProt P50750)
[6] = target: T4, PDK1 (Homo sapiens, UniProt O15530)
T4 sequence (O15530 1-556): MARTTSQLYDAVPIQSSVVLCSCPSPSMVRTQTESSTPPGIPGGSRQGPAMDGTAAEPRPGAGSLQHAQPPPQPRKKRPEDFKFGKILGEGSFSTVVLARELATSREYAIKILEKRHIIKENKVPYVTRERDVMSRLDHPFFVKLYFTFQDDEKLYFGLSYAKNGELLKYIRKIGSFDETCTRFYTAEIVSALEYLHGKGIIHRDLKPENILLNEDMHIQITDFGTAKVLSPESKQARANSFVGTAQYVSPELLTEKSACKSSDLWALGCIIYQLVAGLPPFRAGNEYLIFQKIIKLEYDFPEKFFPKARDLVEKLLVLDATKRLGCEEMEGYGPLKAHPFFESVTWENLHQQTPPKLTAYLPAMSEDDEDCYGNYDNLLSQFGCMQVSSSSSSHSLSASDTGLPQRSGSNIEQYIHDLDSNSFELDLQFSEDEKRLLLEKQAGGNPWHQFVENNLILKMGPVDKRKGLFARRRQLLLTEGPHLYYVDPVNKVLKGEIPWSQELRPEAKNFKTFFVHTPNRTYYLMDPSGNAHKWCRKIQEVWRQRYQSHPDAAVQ

[7] = target: p38 alpha MAPK (Homo sapiens, UniProt Q16539)
[8] = target: IR (Homo sapiens, UniProt P06213)
[9] = target: MLK1 (Homo sapiens, UniProt P80192)
[10] = target: PAK5 (Homo sapiens, UniProt Q9P286)
[11] = target: MNK1 (Homo sapiens, UniProt Q9BUB5)
[12] = target: PIM2 (Homo sapiens, UniProt Q9P1W9)
[13] = target: IGF-1R (Homo sapiens, UniProt P08069)
[14] = target: CK1 gamma 2 (Homo sapiens, UniProt P78368)

Sequence of PIM2 (Q9P1W9 whole entry): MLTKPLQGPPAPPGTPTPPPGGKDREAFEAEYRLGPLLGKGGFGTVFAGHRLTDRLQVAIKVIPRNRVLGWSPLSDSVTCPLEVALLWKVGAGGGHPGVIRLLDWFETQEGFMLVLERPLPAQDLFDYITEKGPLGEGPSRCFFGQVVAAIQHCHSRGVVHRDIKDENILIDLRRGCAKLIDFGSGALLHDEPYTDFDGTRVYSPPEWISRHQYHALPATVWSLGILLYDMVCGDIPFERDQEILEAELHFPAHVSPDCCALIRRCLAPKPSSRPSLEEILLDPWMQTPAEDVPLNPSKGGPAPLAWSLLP
Sequence of HER4 (Q15303 26-1308): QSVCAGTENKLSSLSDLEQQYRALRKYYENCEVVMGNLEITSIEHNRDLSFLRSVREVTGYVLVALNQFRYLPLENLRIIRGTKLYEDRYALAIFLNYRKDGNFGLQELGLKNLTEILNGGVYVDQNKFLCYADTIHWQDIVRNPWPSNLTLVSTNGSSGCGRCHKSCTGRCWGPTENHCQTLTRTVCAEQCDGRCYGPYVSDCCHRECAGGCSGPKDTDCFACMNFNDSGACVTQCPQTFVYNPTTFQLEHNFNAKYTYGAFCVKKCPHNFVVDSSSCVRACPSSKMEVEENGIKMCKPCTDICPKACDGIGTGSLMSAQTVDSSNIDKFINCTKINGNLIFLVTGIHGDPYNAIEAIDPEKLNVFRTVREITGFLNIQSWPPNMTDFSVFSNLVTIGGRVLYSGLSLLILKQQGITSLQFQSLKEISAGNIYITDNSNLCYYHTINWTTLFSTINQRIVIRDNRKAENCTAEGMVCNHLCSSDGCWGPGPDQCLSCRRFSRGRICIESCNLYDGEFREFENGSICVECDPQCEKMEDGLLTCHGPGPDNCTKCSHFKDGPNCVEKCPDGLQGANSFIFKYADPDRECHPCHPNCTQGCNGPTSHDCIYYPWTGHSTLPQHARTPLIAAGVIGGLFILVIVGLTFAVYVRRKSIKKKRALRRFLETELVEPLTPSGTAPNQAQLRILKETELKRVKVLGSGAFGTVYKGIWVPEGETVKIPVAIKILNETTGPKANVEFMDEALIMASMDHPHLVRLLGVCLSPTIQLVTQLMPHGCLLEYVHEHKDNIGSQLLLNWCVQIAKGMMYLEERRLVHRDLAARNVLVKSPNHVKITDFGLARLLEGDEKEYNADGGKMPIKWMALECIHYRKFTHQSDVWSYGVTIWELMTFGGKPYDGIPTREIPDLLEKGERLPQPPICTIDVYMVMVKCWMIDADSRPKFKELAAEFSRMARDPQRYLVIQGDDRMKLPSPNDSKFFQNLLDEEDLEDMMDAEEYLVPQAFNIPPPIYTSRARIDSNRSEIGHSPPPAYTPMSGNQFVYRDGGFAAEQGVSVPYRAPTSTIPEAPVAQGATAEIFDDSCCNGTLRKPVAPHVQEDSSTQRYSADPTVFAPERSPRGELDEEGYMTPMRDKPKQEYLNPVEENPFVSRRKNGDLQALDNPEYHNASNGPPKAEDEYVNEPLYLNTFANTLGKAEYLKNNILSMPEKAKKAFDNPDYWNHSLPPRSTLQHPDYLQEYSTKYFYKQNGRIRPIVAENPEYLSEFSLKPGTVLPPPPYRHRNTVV
Sequence of PAK5 (Q9P286 whole entry): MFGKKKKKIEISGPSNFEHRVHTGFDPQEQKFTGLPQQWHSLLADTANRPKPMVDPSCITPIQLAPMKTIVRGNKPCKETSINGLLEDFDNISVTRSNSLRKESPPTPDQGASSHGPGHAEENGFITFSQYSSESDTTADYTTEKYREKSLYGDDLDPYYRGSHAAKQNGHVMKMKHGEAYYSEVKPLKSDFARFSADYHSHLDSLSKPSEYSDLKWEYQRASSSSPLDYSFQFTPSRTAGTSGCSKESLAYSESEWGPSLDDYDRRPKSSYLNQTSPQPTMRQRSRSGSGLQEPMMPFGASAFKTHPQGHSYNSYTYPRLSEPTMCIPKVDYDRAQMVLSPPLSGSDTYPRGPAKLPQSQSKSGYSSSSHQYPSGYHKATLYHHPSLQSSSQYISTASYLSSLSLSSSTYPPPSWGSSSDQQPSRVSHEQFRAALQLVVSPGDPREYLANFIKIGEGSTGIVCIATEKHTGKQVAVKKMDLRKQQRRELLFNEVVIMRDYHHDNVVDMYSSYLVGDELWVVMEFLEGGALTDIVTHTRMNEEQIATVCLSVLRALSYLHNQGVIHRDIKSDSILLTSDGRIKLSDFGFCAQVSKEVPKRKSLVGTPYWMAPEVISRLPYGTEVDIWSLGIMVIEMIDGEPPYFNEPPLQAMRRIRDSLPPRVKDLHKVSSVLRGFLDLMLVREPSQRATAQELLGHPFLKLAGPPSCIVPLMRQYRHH
Sequence of IGF-1R (P08069 31-1367): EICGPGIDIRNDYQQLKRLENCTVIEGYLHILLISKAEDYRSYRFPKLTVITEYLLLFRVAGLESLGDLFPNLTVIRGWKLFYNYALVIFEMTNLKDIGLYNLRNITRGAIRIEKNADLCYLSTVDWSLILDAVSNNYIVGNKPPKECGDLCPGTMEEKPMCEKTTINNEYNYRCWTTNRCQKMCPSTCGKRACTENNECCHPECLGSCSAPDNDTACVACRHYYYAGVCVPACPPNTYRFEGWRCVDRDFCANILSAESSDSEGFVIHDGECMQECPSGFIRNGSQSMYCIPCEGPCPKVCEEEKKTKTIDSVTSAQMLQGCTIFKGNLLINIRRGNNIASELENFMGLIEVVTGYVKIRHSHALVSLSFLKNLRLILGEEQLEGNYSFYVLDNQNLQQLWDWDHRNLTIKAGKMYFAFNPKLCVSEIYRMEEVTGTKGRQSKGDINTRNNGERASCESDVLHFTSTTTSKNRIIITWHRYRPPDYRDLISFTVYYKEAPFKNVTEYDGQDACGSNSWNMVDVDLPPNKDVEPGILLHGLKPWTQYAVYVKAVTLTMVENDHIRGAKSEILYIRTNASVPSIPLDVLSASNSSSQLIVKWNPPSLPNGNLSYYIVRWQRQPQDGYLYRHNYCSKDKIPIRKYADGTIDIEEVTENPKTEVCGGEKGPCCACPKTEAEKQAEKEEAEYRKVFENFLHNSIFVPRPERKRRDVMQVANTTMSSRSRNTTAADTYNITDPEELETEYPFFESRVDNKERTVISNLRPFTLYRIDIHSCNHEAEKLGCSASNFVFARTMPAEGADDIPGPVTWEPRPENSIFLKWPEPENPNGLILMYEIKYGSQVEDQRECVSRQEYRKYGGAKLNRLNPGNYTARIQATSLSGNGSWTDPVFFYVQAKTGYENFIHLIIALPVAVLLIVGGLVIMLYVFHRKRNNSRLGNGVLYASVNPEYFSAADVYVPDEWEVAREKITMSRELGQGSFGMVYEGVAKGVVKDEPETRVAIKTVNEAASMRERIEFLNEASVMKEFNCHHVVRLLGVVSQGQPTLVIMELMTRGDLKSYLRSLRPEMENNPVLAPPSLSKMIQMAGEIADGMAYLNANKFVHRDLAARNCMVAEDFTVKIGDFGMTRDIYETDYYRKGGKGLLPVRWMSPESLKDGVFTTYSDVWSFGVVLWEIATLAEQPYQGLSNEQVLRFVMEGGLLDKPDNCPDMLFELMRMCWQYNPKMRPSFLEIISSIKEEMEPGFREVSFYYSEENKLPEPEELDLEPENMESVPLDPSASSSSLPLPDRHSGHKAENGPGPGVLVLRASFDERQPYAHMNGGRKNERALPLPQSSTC
Sequence of MLK1 (P80192 whole entry): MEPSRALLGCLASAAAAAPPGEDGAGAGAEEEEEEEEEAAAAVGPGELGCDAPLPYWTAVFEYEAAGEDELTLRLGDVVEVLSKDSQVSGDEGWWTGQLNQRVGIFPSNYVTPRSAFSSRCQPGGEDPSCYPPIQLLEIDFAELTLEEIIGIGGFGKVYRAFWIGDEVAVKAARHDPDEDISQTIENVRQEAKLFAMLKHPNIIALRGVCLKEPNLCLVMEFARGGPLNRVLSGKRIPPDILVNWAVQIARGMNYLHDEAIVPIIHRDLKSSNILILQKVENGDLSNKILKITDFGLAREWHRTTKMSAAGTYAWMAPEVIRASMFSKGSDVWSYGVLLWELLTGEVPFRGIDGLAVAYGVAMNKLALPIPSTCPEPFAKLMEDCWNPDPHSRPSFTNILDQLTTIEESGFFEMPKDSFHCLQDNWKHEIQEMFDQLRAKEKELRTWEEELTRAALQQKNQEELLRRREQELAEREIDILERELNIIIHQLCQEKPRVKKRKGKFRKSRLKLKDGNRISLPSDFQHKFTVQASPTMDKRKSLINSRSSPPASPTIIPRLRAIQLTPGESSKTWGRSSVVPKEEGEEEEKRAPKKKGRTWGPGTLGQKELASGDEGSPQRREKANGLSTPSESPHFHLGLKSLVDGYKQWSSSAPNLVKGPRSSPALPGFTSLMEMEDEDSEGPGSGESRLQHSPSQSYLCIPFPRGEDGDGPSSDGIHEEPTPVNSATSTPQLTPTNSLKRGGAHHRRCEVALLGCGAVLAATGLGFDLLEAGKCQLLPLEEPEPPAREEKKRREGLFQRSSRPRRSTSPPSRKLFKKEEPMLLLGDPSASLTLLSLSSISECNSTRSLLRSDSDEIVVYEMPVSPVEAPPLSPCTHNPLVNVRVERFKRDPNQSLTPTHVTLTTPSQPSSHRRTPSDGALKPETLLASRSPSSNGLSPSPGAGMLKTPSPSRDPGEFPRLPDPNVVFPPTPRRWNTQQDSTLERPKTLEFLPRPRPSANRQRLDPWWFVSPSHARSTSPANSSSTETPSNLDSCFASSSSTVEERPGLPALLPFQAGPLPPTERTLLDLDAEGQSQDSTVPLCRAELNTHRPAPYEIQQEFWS

Cc1nc(Nc2ncc(C(=O)Nc3c(C)cccc3Cl)s2)cc(N2CCN(CCO)CC2)n1 [Dasatinib]
remaining activity at 0.1 µM [1]: 97 ± 23%
remaining activity at 1 µM [1]: 99 ± 7%
remaining activity at 0.1 µM [2]: 27 ± 1%
remaining activity at 1 µM [2]: 6%
remaining activity at 0.1 µM [3]: 112 ± 24%
remaining activity at 1 µM [3]: 102 ± 6%
remaining activity at 0.1 µM [4]: 119 ± 10%
remaining activity at 1 µM [4]: 118 ± 8%
remaining activity at 0.1 µM [5]: 122 ± 8%
remaining activity at 1 µM [5]: 138 ± 12%
remaining activity at 0.1 µM [6]: 94 ± 9%
remaining activity at 1 µM [6]: 92 ± 1%
remaining activity at 0.1 µM [7]: 79 ± 15%
remaining activity at 1 µM [7]: 29 ± 2%
remaining activity at 0.1 µM [8]: 99 ± 2%
remaining activity at 1 µM [8]: 94 ± 7%
remaining activity at 0.1 µM [9]: 72 ± 1%
remaining activity at 1 µM [9]: 41 ± 2%
remaining activity at 0.1 µM [10]: 131 ± 12%
remaining activity at 1 µM [10]: 138 ± 7%
remaining activity at 0.1 µM [11]: 108%
remaining activity at 1 µM [11]: 102 ± 9%
remaining activity at 0.1 µM [12]: 104 ± 3%
remaining activity at 1 µM [12]: 105 ± 1%
remaining activity at 0.1 µM [13]: 107 ± 6%
remaining activity at 1 µM [13]: 98 ± 7%
remaining activity at 0.1 µM [14]: 115%
remaining activity at 1 µM [14]: 113 ± 12%

COc1cc(Nc2c(C#N)cnc3cc(OCCCN4CCN(C)CC4)c(OC)cc23)c(Cl)cc1Cl [Bosutinib, bosutinib]
remaining activity at 0.1 µM [1]: 41 ± 9%
remaining activity at 1 µM [1]: 5%
remaining activity at 0.1 µM [2]: 9%
remaining activity at 1 µM [2]: 1 ± 1%
remaining activity at 0.1 µM [3]: 55 ± 3%
remaining activity at 1 µM [3]: 23%
remaining activity at 0.1 µM [4]: 63 ± 12%
remaining activity at 1 µM [4]: 21 ± 2%
remaining activity at 0.1 µM [5]: 101 ± 8%
remaining activity at 1 µM [5]: 125 ± 16%
remaining activity at 0.1 µM [6]: 92 ± 16%
remaining activity at 1 µM [6]: 98%
remaining activity at 0.1 µM [7]: 97 ± 4%
remaining activity at 1 µM [7]: 72 ± 3%
remaining activity at 0.1 µM [8]: 87 ± 7%
remaining activity at 1 µM [8]: 107 ± 34%
remaining activity at 0.1 µM [9]: 52 ± 9%
remaining activity at 1 µM [9]: 18 ± 4%
remaining activity at 0.1 µM [10]: 105 ± 18%
remaining activity at 1 µM [10]: 129 ± 5%
remaining activity at 0.1 µM [11]: 99 ± 14%
remaining activity at 1 µM [11]: 105 ± 2%
remaining activity at 0.1 µM [12]: 99%
remaining activity at 1 µM [12]: 96 ± 8%
remaining activity at 0.1 µM [13]: 89 ± 8%
remaining activity at 1 µM [13]: 79 ± 4%
remaining activity at 0.1 µM [14]: 117 ± 1%
remaining activity at 1 µM [14]: 108 ± 4%

— publication PMC4286194 (Biochemical Journal, 2015)
